From patent US4927826A, “Cycloproylpropenamides useful as platelet activing factor (PAF) antagonists” (Hoffman-La Roche Inc., priority 1988, dated 1990)

Legend:
[1] = system: dog platelets; experiment: Binding assay: inhibition of 3H-PAF binding to dog platelets; settings: 10 minutes at room temperature
Description: The binding assay was done in 400 μl polyethylene microcentrifuge tubes (Beckman) containing 50 μl of an oil mixture of 2 parts Siliconol AR200 (Serva): 1 part Silicone Fluid (Arthur H. Thomas). Buffer, standards, or analogs (150 μl total volume) were added to the tubes. Radiolabelled ^3 H-PAF (50 μl) was then added to the tubes. The reaction was started by the addition of 50 μl of dog platelets (2×10^7 platelets). The tubes were capped, inverted several times to mix, and incubated for 10 minutes at room temperature. The platelets were separated from the incubation mixture by centrifuging 1 minute in a Beckman Microfuge B centrifuge. The tip of the microfuge tube was cut off, and the platelets were washed out of the tip with 200 μl of 50% methanol (Burdick and Jackson). Aquasol (NEN, 10 ml) was added and the radioactivity in the samples was determined using an LS 8100 Beckman liquid scintillation counter linked to a Techtran tape recorder. Data was processed through an in-house computer system. Alternatively, radioactivity was determined using a Searle Mark III liquid scintillation counter linked to a Iso-Data microprocessor.
(b) Preparation of Platelets
Blood was collected from anesthesized or unanesthesized dogs into 50 ml plastic centrifuge tubes containing 3.8% sodium citrate as the anticoagulant (1 volume of citrate/9 volumes of blood). The red cells were removed by centrifugation for 15 minutes at 600 rpm (100-125 g) at room temperature. An aliquot of the supernatant platelet rich plasma (PRP) was saved for cell counting and the remainder was acidified by pH 6.5 with 0.15M citric acid. The platelet pellet was obtained after a 10 minute centrifugation at 2000 rpm (1000 g) at room temperature. Washed platelets were prepared by resuspending the platelet pellet once with PBS containing 1 mM EDTA, centrifuging as noted, and then resuspending the platelets in 0.1% BSA-PBS. An aliquot of the washed platelets was counted. Platelets used for binding assays were diluted to 2×10^7 platelets/assay tube (4×10^8 platelets/ml). Platelet counting was done using a Royco Cell-Crit 921.

[2] = system: PAF-induced Bronchoconstriction; experiment: PAF Induced Bronchoconstriction Assay; type: in vivo; settings: guinea pig, ± standard error of the mean; for Percent Inhib. of PAF-induced Bronchoconstriction, 1 mg/Kg i.v.: 1 minute pretreatment, PAF 1.0 μg/kg i.v.; for Percent Inhib. of PAF-induced Bronchoconstriction, 50 mg/Kg p.o.: 2-hour pretreatment, PAF i.v.
Description: PAF Induced Bronchoconstriction Assay
Male animals (Hartlet Strain, 400-500 g) were anesthetized with urethane (2 g/kg, i.p.). Each animals' trachea was cannulated and the guinea pigs were respirated using a Harvard small animal rodent respirator (3.0 cc stroke volume, 40 breaths per min.). Tracheal pressure was recorded from a cannula inserted in the trachea and connected to a Statham Pressure Transducer.
The jugular vein was cannulated for administering compounds. Spontaneous breathing was arrested with succinylcholine (1.2 mg/kg, i.v.) administered 2 minutes prior to intravenous injection of platelet activating factor (PAF).
For, the intravenous testing, the guinea pig is given a 5-minute pretreatment with propranolol at a dose of 0.1 mg/kg intravenously. The test compound is administered with a 1 minute pretreatment prior to intravenous challenge with PAF. The animal is then challenged with a 1.0 μg/kg intravenous dose of PAF and the change is tracheal pressure is measured.
For the oral testing, the procedure includes a 2-hour pretreatment period with the test compound administered through an oral gavage tube. Propranolol or succinylcholine and PAF are administered intravenously, and the change in tracheal pressure measured.
The change is tracheal pressure is determined by subtracting the steady state baseline achieved after administration of succinylcholine from the peak bronchoconstriction seen after challenge with PAF. The mean is calculated for each test compound and compared to the mean of the control animals to give the percent inhibition of bronchoconstriction. The standard error is calculated as the standard error of the mean.

[3] = system: PAF-induced Platelet Count Decrease; experiment: PAF induced platelet count decrease; type: in vivo, guinea pig; settings: for Percent Inhib. of PAF-induced Platelet Count Decrease, 3 mg/Kg i.v.: guinea pig, 15 minutes after drug injection, PAF 75 ng/kg i.v.
Description: PAF INDUCED PLATELET COUNT DECREASE
Male Hartley guinea pigs weighing between 500 and 900 grams were fed standard guinea pig chow and tap water ad libitum. PAF was solubilized in ethanol and stored as a 2 mM stock solution at -70° C. The stock solution of PAF was diluted to 1 pM in Tris buffer pH 7.4 and 0.1% BSA for all experiments.
(a) Intravenous Procedure
Guinea pigs were anesthetized with urethane (1.6 g/kg, i.p.). A catheter (PE50) was introduced into the right carotid artery for withdrawing blood. A second catheter PE10) was introduced into the jugular vein for injecting drugs and for administering the PAF challenge (75 ng/kg, i.v.). A control blood sample was obtained and platelets were counted in a whole blood platelet analyzer. PAF was then given and blood samples were taken 15, 30, and 60 seconds after the challenge for platelet counts. Fifteen minutes later, selected concentrations of the test compound were solubilized in DMSO and injected intravenously into a group of 4-6 animals. Only one concentration of antagonist was used in each animal group. Fifteen minutes after drug injection, blood samples were taken before and 15, 30, and 60 sec after the PAF challenge, and analyzed for platelet number.
Animals were anesthetized with sodium pentobarbital (35 mg/kg, i.p.) and the caritoid artery and jugular vein were cannulated as described above. The cannulae were exteriorized at the base of the neck and the animals were allowed to recover. At least 18 hours after surgery, conscious unrestrained guinea pigs were used in the experiment. The animals were challenged two time with PAF (120 ng/kg, i.v.); the first to establish a consistent response to PAF and the second to serve as a control for the PAF challenge. Blood samples were taken before and 15, 30, and 45 seconds after PAF challenge and platelets were counted. Thirty minutes after the control PAF challenge, the animal were orally dosed with either gum acacia or the test compound. Animals were then challenged with PAF at 1, 3, 5, and 24 hours after the administration of the drug.
DATA ANALYSIS AND STATISTICS
The % change, i.e., the difference in platelet number before and after PAF challenge was calculated by: [formula]
Statistical significance (p 0.05) of the difference between the mean PAF control and mean drug treated activity was determined with paried Student's t-test.

IC50 [1] | Compound | Percent Inhib. of PAF-induced Bronchoconstriction, 1 mg/Kg i.v. [2] | Percent Inhib. of PAF-induced Platelet Count Decrease, 3 mg/Kg i.v. [3] | Percent Inhib. of PAF-induced Bronchoconstriction, 50 mg/Kg p.o. [2] | Percent Inhib. of PAF-induced Platelet Count Decrease, 30 mg/Kg p.o. ([3]; conscious guinea pig, 30 mg/Kg p.o., PAF 120 ng/kg i.v.)
53 nM | O=C(/C=C/C1CC1(c1cccc(F)c1)c1cccc(F)c1)NCCCCc1cccnc1 (racemic) [[R,S-(E)]-3-[2,2-bis(3-Fluorophenyl)cyclopropyl]-N-[4-(3-pyridinyl)butyl]-2-propenamide] | 96 ± 2% | 30% | – | –
100 nM | O=C(/C=C\C1CC1(c1cccc(F)c1)c1cccc(F)c1)NCCCCc1cccnc1 (racemic) [[R,S-(Z)]-3-[2,2-bis(3-Fluorophenyl)cyclopropyl]-N-[4-(3-pyridinyl)butyl]-2-propenamide] | – | 22% | 52 ± 28% | –
24 nM | O=C(/C=C/[C@@H]1CC1(c1cccc(F)c1)c1cccc(F)c1)NCCCCc1cccnc1 [[S-(E)]-3-[2,2-bis(3-Fluorophenyl)cyclopropyl]-N-[4-(3-pyridinyl)butyl]-2-propenamide] | 90 ± 4% | – | 95 ± 79% | 66%
250 nM | COc1cccc([C@@]2(c3ccccc3)C[C@@H]2/C=C\C(=O)NCCCCc2cccnc2)c1 (relative stereo) [[1(R,S),2(S,R)-(Z)]-3-[[2-(3-Methoxyphenyl)-2-phenyl]cyclopropyl]-N-[4-(3-pyridinyl)butyl]-2-propenamide] | – | – | 15 ± 12% | –
35 nM | O=C(/C=C/[C@@H]1CC1(c1ccccc1)c1ccccc1)NCCCCc1cccnc1 [[S-(E)]-3-(2,2-Diphenylcyclopropyl)-N-[4-(3-pyridinyl)butyl]-2-propenamide] | 86 ± 7% | 44% | – | –
